# In PubChem BioAssay AID2740 (NMMLSC, 2010):
# Active and inactive are the calls of the source.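 Rule for the calls: active = compounds whose fitted half-maximal concentration for changing the GFP signal is at or below a set limit; inactive = the rest.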
# Assay: TOR pathway RPL19A-GFP modulators, concentration series – cell-based, S. cerevisiae, flow cytometry, MLPCN hits, dose response (AID 2740);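 note: background is signal of the same compound in parental non-GFP s288c yeast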
# Settings: S. cerevisiae RPL19A-GFP strain, flow cytometry fluorescence, 3 h; at 33 µM (top of the series)
row,SMILES,"GFP fluorescence, lower = active (kMESF (background-subtracted))"
1,CCCc1cc(=O)oc2cc(C)cc(OCC(=O)NC3CC3)c12,39 (inactive)
2,COc1ccc(C(=O)/C=C2/C(=O)Nc3ccccc32)c(OC)c1,37.3 (inactive)
3,CC(c1ccccc1)N1C(=O)/C(=C/c2ccncc2)SC1=S (stereo not drawn),20.6 (inactive)
4,CCOc1ccc(C(Nc2cccnc2)c2cc(Cl)c3cccnc3c2O)cc1 (stereo not drawn),28.3 (inactive)
5,CC(C)[C@@]1(c2ccc(Cl)cc2)ON(c2ccccc2C(F)(F)F)C1=O,39.1 (inactive)
6,O=C(Nc1cccc(C(F)(F)F)c1)Oc1ccc(Cl)c2cccnc12,39.4 (inactive)
7,CN(C)c1ccc(N=Cc2nc(-c3ccccc3)oc2OC(=O)c2ccccc2)cc1,44.1 (inactive)
8,CCOC(=O)c1ccc(N=Cc2nc(-c3ccccc3)oc2OC(C)=O)cc1,41.6 (inactive)
9,COc1ccccc1OCCCc1c(C)n[nH]c1C,37.6 (inactive)
10,CCCCC(=O)NC(=S)NNC(=O)CCc1ccccc1,37.8 (inactive)
11,Cc1ccc(S(=O)(=O)c2ncccc2[N+](=O)[O-])cc1,47.4 (inactive)
12,CC(C)[C@@]1(c2ccccc2)ON(c2ccccc2C(F)(F)F)C1=O,40.1 (inactive)
13,O=C1c2cccc3c([N+](=O)[O-])ccc(c23)C(=O)N1O,49.9 (inactive)
14,CCN1/C(=C/C=C/c2sc3ccccc3[n+]2CC)Sc2ccccc21,31.9 (inactive)
15,COc1ccc(/C=C2\C(=O)ON=C2c2ccccc2)cc1,24.9 (inactive)
16,O=C(Oc1oc(-c2ccco2)nc1C=Nc1ccc(Cl)cc1)c1ccco1,52.3 (inactive)
17,Cc1ccc(/C=C2/SC(=S)N(C3CCCCC3)C2=O)o1,38.3 (inactive)
18,O=C1/C(=C\c2ccc(O)c(O)c2)SC(=S)N1Cc1ccccc1,1.52 (inactive)
19,CCCN1CCc2c(sc(NC(=S)NC(=O)c3ccccc3)c2C#N)C1,47.6 (inactive)
20,COc1ccc(C2(C)ON(c3ccccc3C(F)(F)F)C2=O)cc1 (stereo not drawn),34.3 (inactive)
21,Cc1ccc(C(=O)Oc2oc(-c3ccccc3)nc2C=Nc2ccc(N(C)C)cc2)cc1,38.8 (inactive)

row,SMILES,"GFP fluorescence, lower = active (kMESF (background-subtracted))"
1,COc1cc(/C=C2/C(=O)ON=C2c2ccccc2)ccc1O,35.6 (inactive)
2,Cc1ccc(C2=NN(S(C)(=O)=O)C(c3ccc4c(c3)OCO4)C2)cc1 (stereo not drawn),44.8 (inactive)
3,O=C1N(c2ccccc2C(F)(F)F)OC1(Cc1ccccc1)c1ccccc1 (stereo not drawn),45.8 (inactive)
4,COC(=O)CCS(=O)(=O)c1nc(-c2ccccc2)cc(C(F)(F)F)n1,37.3 (inactive)
5,On1ccccc1=S,38 (inactive)
6,Cc1nn2c(NCc3ccccn3)c3c(nc2c1-c1ccccc1)CCC3,44.3 (inactive)
7,COc1ccc(CCNC2=C(Cl)C(=O)N(CCc3ccccc3)C2=O)cc1OC,40 (inactive)
8,COc1ccc(C(c2c(C)[nH]n(C(N)=S)c2=O)C(C#N)C#N)cc1 (stereo not drawn),24.7 (inactive)
9,Cc1ccc(S(=O)(=O)Cc2cc(F)c([N+](=O)[O-])cc2[N+](=O)[O-])cc1,7.75 (inactive)
10,O=C(O)c1cccc(S(=O)(=O)Nc2ccc(S(=O)(=O)N3CCOCC3)cc2)c1,38.7 (inactive)
11,CCCCOc1ccc(C(=O)NNC(=S)NC(=O)CC)cc1,43 (inactive)
12,Oc1c(I)cc(Cl)c2cccnc12,25.8 (inactive)
13,CCN(CC)c1ccc(/C=C2\C(=O)c3ccc(C(=O)O)cc3C2=O)cc1,51.5 (inactive)
14,Clc1ccc(N=c2ssnc2Cl)cc1,36.9 (inactive)
15,O=c1oc2ccccc2c(O)c1[C@H]1c2ccc(O)cc2Oc2c1c(=O)oc1ccccc21,34.8 (inactive)
16,O=C(Oc1ccnc2cc(Cl)ccc12)N1CCCCCC1,25.6 (inactive)
17,O=C1ON=C(c2ccccc2)/C1=C\c1ccco1,28.9 (inactive)
18,CCN(CC)C(=O)Oc1ccnc2cc(Cl)ccc12,41.8 (inactive)
19,Oc1cc(-c2ccc(N3CCCCC3)nc2)cc2cccnc12,46.1 (inactive)
20,O=C(Sc1cccc2cccnc12)c1ccccc1Br,34.8 (inactive)
21,O=C1N(c2ccccc2C(F)(F)F)O[C@]1(c1ccccc1)C1CCCCC1,36.4 (inactive)

row,SMILES,"GFP fluorescence, lower = active (kMESF (background-subtracted))"
1,COc1cc(NC(=O)c2ccc(C)cc2)ccc1NC(=O)c1cc2ccccc2o1,40.8 (inactive)
2,CCCc1nnc(NC(=O)c2c(O)c3cccc4c3n(c2=O)CCC4)s1,14.6 (inactive)
3,O=C(COc1c(Br)cc(Br)c2cccnc12)N1CCc2ccccc2C1,45.4 (inactive)
4,O=c1oc2cc(Oc3c([N+](=O)[O-])cc(C(F)(F)F)cc3[N+](=O)[O-])ccc2c2c1CCCC2,36.1 (inactive)
5,O=C1C(Cl)=C(Nc2ccccc2O)C(=O)N1CCc1ccccc1,42.1 (inactive)
6,CCCCNc1c2c3c(cccc3n(C)c1=O)C(=O)c1ccccc1-2,39.9 (inactive)
7,CCn1c(/C=C/c2ccc([N+](=O)[O-])o2)nc2ccccc2c1=O,-37.1 (inactive)
8,O=C(COc1ccc(F)cc1Cl)Nc1nc(-c2ccccn2)cs1,35.8 (inactive)
9,CC1=C(C)/C(=N\OS(=O)(=O)c2ccc(C)cc2)C=CC1=O,16.9 (inactive)
10,O=C(Nc1ccc(N2CCOCC2)cc1)C1CCN(S(=O)(=O)c2ccc3c(c2)OCCO3)CC1,34.9 (inactive)
11,O=C(/C=C/c1ccccc1)c1cc(Br)ccc(=O)c1O,4.04 (inactive)
12,Oc1c(CN2CCCCC2)cc(Br)c2cccnc12,43.4 (inactive)
13,COc1cccc(/C=C/C(=O)c2c(O)cc(C)oc2=O)c1O,40.4 (inactive)
14,Cc1[nH]c2ccccc2c1C(=O)COC(=O)c1ccc([N+](=O)[O-])s1,13.6 (inactive)
15,O=C(O)c1ccccc1SC1CC(=O)N(c2ccc3c(c2)OCO3)C1=O (stereo not drawn),43.5 (inactive)
16,Cc1cccc(Nc2nc(-c3ccccn3)cs2)n1,29.8 (inactive)
17,CC(=O)c1ccc(N2CCN(C(=O)c3ccc(Br)cc3)CC2)c(F)c1,46.1 (inactive)
18,Cc1cc(NC(c2ccc(Cl)cc2)c2ccc3cccnc3c2O)no1 (stereo not drawn),39.3 (inactive)
19,CCCS(=O)(=O)c1nnnn1-c1cccc(OC)c1,31.9 (inactive)
20,Clc1cnc(N/N=C/c2cccs2)c(Cl)c1,43.5 (inactive)
21,Oc1c(Br)cc(Br)cc1C=Nc1ccc2[nH]ncc2c1,36 (inactive)

row,SMILES,"GFP fluorescence, lower = active (kMESF (background-subtracted))"
1,O=C(C#Cc1cccc([N+](=O)[O-])c1)c1ccccc1,41.3 (inactive)
2,COc1ccc(NC(=O)/C(Cl)=C(/Cl)S(=O)Cc2ccccc2)cn1 (stereo not drawn),35.8 (inactive)
3,O=C1c2ccccc2C(=O)C2OC12 (stereo not drawn),29.2 (inactive)
4,N#C/C(=C\c1ccccn1)c1nc2ccccc2s1,54.2 (inactive)
5,COc1ccc(C2=CC3=C(Br)C(=O)C(C)(O)C(=O)C3=CO2)cc1 (stereo not drawn),1.92 (inactive)
6,COc1cccc(N=Cc2nc(-c3ccccc3)oc2OC(C)=O)c1,41.9 (inactive)
7,C=CCN1C(=O)/C(=C/c2ccc(-c3ccc(F)cc3)o2)SC1=S,34.7 (inactive)
8,Cc1ccccc1N1C(=O)C(Cl)=C(N2CCN(c3ccccc3)CC2)C1=O,39.3 (inactive)
9,CS(=O)(=O)N1N=C(c2ccccc2)CC1c1ccc2c(c1)OCO2 (stereo not drawn),36.9 (inactive)
10,CCCCc1ccc(/C=C2/C(=O)ON=C2c2ccccc2)s1,44.1 (inactive)
11,O=[N+]([O-])c1ccc(S(=O)(=O)c2ccccc2)nc1,29.6 (inactive)
12,COc1ccc(/C=C/C(=O)C2C(=O)C=C(C)OC2=O)cc1O (stereo not drawn),39 (inactive)
13,Cc1ccc(NC(=O)c2nc(S(=O)(=O)Cc3ccccc3)ncc2Cl)cc1,43 (inactive)
14,O=C1c2cccc3c([N+](=O)[O-])ccc(c23)C(=O)N1CCc1ccccn1,47.1 (inactive)
15,O=[N+]([O-])c1cc(O)c2ncccc2c1,45 (inactive)
16,Cc1ccc(C)c(/C=C/C(=O)c2ccccc(=O)c2O)c1,15.8 (inactive)
17,Cc1cccc(C(=O)NNC(=S)NC(=O)c2ccccc2)c1,48.3 (inactive)
18,O=C1N(c2ccccc2C(F)(F)F)O[C@@]1(c1ccccc1)C1CCCCC1,37.6 (inactive)
19,Cc1ccc(C(=O)/C=C/C(=O)c2ccc(C)cc2)cc1,47.5 (inactive)
20,COc1ccc(C(=O)NC(=S)NNC(=O)c2cnccn2)cc1OC,38.6 (inactive)
